This is an account of results in PubChem BioAssay AID1259411 (Chemical Carcinogenesis Research Information System (CCRIS), 2018).

The test system of this series is rodent carcinogenicity bioassays, tumor incidence. Put plainly: CCRIS carcinogenicity studies. In short, it runs like this:
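NCI-built, expert-reviewed records of carcinogenicity and related test outcomes (mutagenicity, tumor promotion/inhibition) compiled from published and report sources, historical span 1985-2011, not updated.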

Each structure is given as a SMILES string. The source made the active and inactive calls. How the calls were made is not given here.

As for `CCOP(=S)(OCC)SC1OCCOC1SP(=S)(OCC)OCC` (stereo unspecified), the carcinogen call reads like this: (Species: MOUSE, Strain/Sex: B6C3F1/FEMALE, Route: ORAL, Dose: 0, 467, 935 PPM IN DIET, TWA, Dose: 0, 467, 935 PPM IN DIET, TWA) “inactive; negative”; (Species: MOUSE, Strain/Sex: B6C3F1/MALE, Route: ORAL, Dose: 0, 284, 567 PPM IN DIET, TWA, Dose: 0, 284, 567 PPM IN DIET, TWA) “inactive; negative”; (Species: RAT, Strain/Sex: OSBORNE-MENDEL/FEMALE, Route: ORAL, Dose: 0, 45, 90 PPM IN DIET, TWA, Dose: 0, 45, 90 PPM IN DIET, TWA) “inactive; negative”; (Species: RAT, Strain/Sex: OSBORNE-MENDEL/MALE, Route: ORAL, Dose: 0, 90, 180 PPM IN DIET, TWA, Dose: 0, 90, 180 PPM IN DIET, TWA) “inactive; negative”.
In the case of `CCC(C)[N+](=O)[O-]` (stereo unspecified), under “Species: RAT, Strain/Sex: F344/MALE, Route: GAVAGE, Dose: 0, 2 MMOL/KG BW 1/WK FOR 50 WK (STUDY DURATION: 83 WK), Tumor Site: Type of Lesion: LIVER: CARCINOMA”, the carcinogen call was “active; positive”.
For `CC1=C[C@]2(O[C@@H]3O[C@H](CO)[C@@H](O)[C@H](O)[C@H]3O)C[C@@H](C)C(=O)[C@@H]2[C@](C)(O)C12CC2`, the carcinogen call runs as follows: (Species: RAT, Strain/Sex: CD-1/FEMALE, Route: INTRAGASTRIC, Dose: 0, 100-150 MG/KG BW IN SALINE 2/WK FOR 8 WK THEN ONCE ON WK 9 (TOTAL DOSE: 0; 339 MG) (STUDY DURATION: 300 D), Dose: 0, 100-150 MG/KG BW IN SALINE 2/WK FOR 8 WK THEN ONCE ON WK 9 (TOTAL DOSE: 0; 339 MG) (STUDY DURATION: 300 D), Tumor Site: Type of Lesion: MAMMARY GLAND: ADENOCARCINOMA, CARCINOMA, SMALL INTESTINE: ADENOCARCINOMA, BLADDER: PAPILLOMA, Tumor Site: Type of Lesion: MAMMARY GLAND: ADENOCARCINOMA, CARCINOMA, SMALL INTESTINE: ADENOCARCINOMA, BLADDER: PAPILLOMA) “active; positive”; (Species: RAT, Strain/Sex: CD-1/FEMALE, Route: INTRAGASTRIC, Dose: 0, 780 MG/KG BW IN SALINE ONCE THEN 0, 100-200 MG/KG 1/WK FOR 8 WK (TOTAL DOSE: 0; 300 MG) (STUDY DURATION: 300 D), Dose: 0, 780 MG/KG BW IN SALINE ONCE THEN 0, 100-200 MG/KG 1/WK FOR 8 WK (TOTAL DOSE: 0; 300 MG) (STUDY DURATION: 300 D), Tumor Site: Type of Lesion: MAMMARY GLAND: ADENOCARCINOMA, CARCINOMA, SMALL INTESTINE: ADENOCARCINOMA) “active; positive”.
On to `Nc1cc(Cl)c(N)c(Cl)c1`, for which the carcinogen call by setting is: (Species: MOUSE, Strain/Sex: B6C3F1/FEMALE, Route: ORAL, Dose: 0, 1000, 3000 PPM IN DIET, Dose: 0, 1000, 3000 PPM IN DIET, Tumor Site: Type of Lesion: LIVER: HEPATOCELLULAR ADENOMA OR CARCINOMA) “active; positive”; (Species: MOUSE, Strain/Sex: B6C3F1/MALE, Route: ORAL, Dose: 0, 1000, 3000 PPM IN DIET, Dose: 0, 1000, 3000 PPM IN DIET, Tumor Site: Type of Lesion: LIVER: HEPATOCELLULAR ADENOMA OR CARCINOMA) “active; positive”; (Species: RAT, Strain/Sex: F344/FEMALE, Route: ORAL, Dose: 0, 2000, 6000 PPM IN DIET, Dose: 0, 2000, 6000 PPM IN DIET) “inactive; negative”; (Species: RAT, Strain/Sex: F344/MALE, Route: ORAL, Dose: 0, 1000, 2000 PPM IN DIET, Dose: 0, 1000, 2000 PPM IN DIET) “inactive; negative”.
As for `Clc1ccc(C(c2ccc(Cl)cc2)C(Cl)Cl)cc1`, the carcinogen call (Species: MOUSE, Strain/Sex: B6C3F1/FEMALE, Route: ORAL, Dose: 0, 411, 822 PPM IN DIET FOR 78 WK (STUDY DURATION: 93 WK), Dose: 0, 411, 822 PPM IN DIET FOR 78 WK (STUDY DURATION: 93 WK)) was “inactive; negative”; the carcinogen call (Species: MOUSE, Strain/Sex: B6C3F1/MALE, Route: ORAL, Dose: 0, 411, 822 PPM IN DIET FOR 78 WK (STUDY DURATION: 93 WK), Dose: 0, 411, 822 PPM IN DIET FOR 78 WK (STUDY DURATION: 93 WK)) was “inactive; negative”; the carcinogen call (Species: MOUSE, Strain/Sex: CF-1/MALE,FEMALE, Route: ORAL, Dose: 250 PPM IN DIET, Tumor Site: Type of Lesion: LUNG) was “active; positive”; the carcinogen call (Species: RAT, Strain/Sex: OSBORNE-MENDEL/FEMALE, Route: ORAL, Dose: 0, 850, 1700 PPM IN DIET FOR 78 WK (STUDY DURATION: 113 WK), Dose: 0, 850, 1700 PPM IN DIET FOR 78 WK (STUDY DURATION: 113 WK)) was “inactive; negative”; the carcinogen call (Species: RAT, Strain/Sex: OSBORNE-MENDEL/MALE, Route: ORAL, Dose: 0, 1647, 3294 PPM IN DIET FOR 78 WK (STUDY DURATION: 113 WK), Dose: 0, 1647, 3294 PPM IN DIET FOR 78 WK (STUDY DURATION: 113 WK), Tumor Site: Type of Lesion: THYROID GLAND: FOLLICULAR CELL CARCINOMA OR ADENOMA) is “equivocal”.
As to `Nc1ccc(S(=O)(=O)c2ccc(N)cc2)cc1`, the carcinogen call was “inactive; negative” (Species: MOUSE, Strain/Sex: B6C3F1/FEMALE, Route: ORAL, Dose: 0, 500, 1000 PPM IN DIET FOR 78 WK (STUDY DURATION: 105-108 WK), Dose: 0, 500, 1000 PPM IN DIET FOR 78 WK (STUDY DURATION: 105-108 WK)); “inactive; negative” (Species: MOUSE, Strain/Sex: B6C3F1/MALE, Route: ORAL, Dose: 0, 500, 1000 PPM IN DIET FOR 78 WK (STUDY DURATION: 105-106 WK), Dose: 0, 500, 1000 PPM IN DIET FOR 78 WK (STUDY DURATION: 105-106 WK)); “active; positive” (Species: RAT, Strain/Sex: BDIV/MALE,FEMALE, Route: GAVAGE, Dose: 100 MG/KG TO MOTHERS DURING PREGNANCY AND DURING WEANING, 52 G/KG (TOTAL DOSE) TO OFFSPRING AFTER WEANING, Tumor Site: Type of Lesion: THYROID GLAND: MALIGNANT C CELL TUMOR); “inactive; negative” (Species: RAT, Strain/Sex: F344/FEMALE, Route: ORAL, Dose: 0, 600, 1200 PPM IN DIET FOR 78 WK (STUDY DURATION: 105-106 WK), Dose: 0, 600, 1200 PPM IN DIET FOR 78 WK (STUDY DURATION: 105-106 WK)); “inactive; negative” (Species: RAT, Strain/Sex: F344/FEMALE, Route: ORAL, Dose: 0, 600, 1200 PPM IN DIET FOR 78 WK (STUDY DURATION: 105 WK), Dose: 0, 600, 1200 PPM IN DIET FOR 78 WK (STUDY DURATION: 105 WK)); “active; positive” (Species: RAT, Strain/Sex: F344/MALE, Route: ORAL, Dose: 0, 600, 1200 PPM IN DIET FOR 78 WK (STUDY DURATION: 104-106 WK), Dose: 0, 600, 1200 PPM IN DIET FOR 78 WK (STUDY DURATION: 104-106 WK), Tumor Site: Type of Lesion: SPLEEN: FIBROMA OR FIBROSARCOMA OR SARCOMA (NOS), PERITONEAL CAVITY: FIBROSARCOMA, SARCOMA (NOS)). The carcinogen call is “active; positive” (Species: RAT, Strain/Sex: F344/MALE, Route: ORAL, Dose: 0, 600, 1200 PPM IN DIET FOR 78 WK (STUDY DURATION: 105 WK), Dose: 0, 600, 1200 PPM IN DIET FOR 78 WK (STUDY DURATION: 105 WK), Tumor Site: Type of Lesion: SPLEEN OR PERITONEUM: SARCOMA) and “active; positive” (Species: RAT, Strain/Sex: WISTAR/MALE, Route: ORAL, Dose: 0.025% INCREASED TO 0.3% BY THIRD MO, Tumor Site: Type of Lesion: MULTIPLE SITES).
On to `O=C1CCO1`, for which the carcinogen call runs as follows: (Species: MOUSE, Route: DERMAL, Tumor Site: Type of Lesion: INTEGUMENTARY SYSTEM (SKIN)) “active; positive”; (Species: MOUSE, Route: INTRAPERITONEAL, Tumor Site: Type of Lesion: LIVER, LYMPHATIC SYSTEM: LYMPHOMA) “active; positive”; (Species: MOUSE, Route: SUBCUTANEOUS, Tumor Site: Type of Lesion: INJECTION SITE) “active; positive”; (Species: MOUSE, Strain/Sex: CF1/FEMALE, Route: DERMAL, Dose: 0, 2% IN ACETONE 2D/WK FOR 2 YR (STUDY DURATION: 2 YR), Tumor Site: Type of Lesion: SKIN: SQUAMOUS CELL CARCINOMA, SKIN: CARCINOSARCOMA) “active; positive”; (Species: MOUSE, Strain/Sex: CF1/MALE, Route: DERMAL, Dose: 0, 2% IN ACETONE 2D/WK FOR 104 WK (STUDY DURATION: 2 YR), Tumor Site: Type of Lesion: SKIN: SQUAMOUS CELL CARCINOMA, SKIN: DERMAL FIBROSARCOMA, SKIN: CARCINOSARCOMA, Tumor Site: Type of Lesion: SKIN: SQUAMOUS CELL CARCINOMA, SKIN: DERMAL FIBROSARCOMA, SKIN: CARCINOSARCOMA) “active; positive”; (Species: RAT, Route: SUBCUTANEOUS, Tumor Site: Type of Lesion: INJECTION SITE) “active; positive”. In addition, the carcinogen call (Species: RAT, Strain/Sex: SPRAGUE-DAWLEY/MALE, Route: INHALATION, Dose: 0, 5, 10, 20 PPM 6 HR/D 5 D/WK FOR 30 D EXCEPT 20 PPM GROUP WHICH WAS EXPOSED FOR 5 D (STUDY DURATION: LIFETIME), Dose: 0, 5, 10, 20 PPM 6 HR/D 5 D/WK FOR 30 D EXCEPT 20 PPM GROUP WHICH WAS EXPOSED FOR 5 D (STUDY DURATION: LIFETIME), Tumor Site: Type of Lesion: NASAL CAVITY: TUMORS) was “active; positive”.
